From US20220119354A1, “DIAMINO-SUBSTITUTED PYRIDINES AND PYRIMIDINES AS HERBICIDES” (FMC Corporation, priority 2019, published 2022)

Experiments:
Format in all cases: in vivo
[1] = tested on: ducksalad (Heteranthera limosa); assay: Test B flooded paddy test, ducksalad; conditions: Flood, 250 g ai/ha, applied to paddy water, 2-leaf stage, visual evaluation after 13 to 15 d
How it was run: (§1)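 Application was made into paddy water of pots flooded 3 cm deep at treatment, with seedlings at the 2-leaf stage. That flood level was kept throughout, and plants stayed under glass 13 to 15 d before visual assessment on a 0–100 control scale.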

[2] = tested on: rice (Oryza sativa); assay: Test B flooded paddy test, rice; conditions: Flood, 250 g ai/ha, applied to paddy water, 2-leaf stage, visual evaluation after 13 to 15 d
How it was run: as §1

[3] = tested on: kochia (Kochia scoparia); assay: Test A preemergence, kochia; conditions: 0 to 100 scale
How it was run: (§2)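 Seeds sown in loam–sand blend received a directed soil spray of test chemical in non-phytotoxic solvent with surfactant (preemergence); postemergence plants at 2–10 cm, one- to two-leaf stage, were sprayed with the same formulation. Injury rated visually versus untreated controls after ~10 d in greenhouse, 0–100 scale.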

[4] = tested on: wheat (Triticum aestivum); assay: Test A postemergence, wheat; conditions: 0 to 100 scale
How it was run: as §2

[5] = tested on: foxtail, giant (Setaria faberii); assay: Test A preemergence, giant foxtail; conditions: 0 to 100 scale
How it was run: as §2

[6] = tested on: kochia (Kochia scoparia); assay: Test A postemergence, kochia; conditions: 0 to 100 scale
How it was run: as §2

[7] = tested on: barnyardgrass (Echinochloa crus-galli); assay: Test B flooded paddy test, barnyardgrass; conditions: Flood, 250 g ai/ha, applied to paddy water, 2-leaf stage, visual evaluation after 13 to 15 d
How it was run: as §1

[8] = tested on: pigweed (Amaranthus retroflexus); assay: Test A preemergence, pigweed; conditions: 0 to 100 scale
How it was run: as §2

[9] = tested on: ryegrass, Italian (Lolium multiflorum); assay: Test A preemergence, Italian ryegrass; conditions: 0 to 100 scale
How it was run: as §2

[10] = tested on: barnyardgrass (Echinochloa crus-galli); assay: Test A postemergence, barnyardgrass; conditions: 0 to 100 scale
How it was run: as §2

[11] = tested on: ragweed (common ragweed, Ambrosia elatior); assay: Test A postemergence, ragweed; conditions: 0 to 100 scale
How it was run: as §2

[12] = tested on: pigweed (Amaranthus retroflexus); assay: Test A postemergence, pigweed; conditions: 0 to 100 scale
How it was run: as §2

[13] = tested on: ragweed (common ragweed, Ambrosia elatior); assay: Test A preemergence, ragweed; conditions: 0 to 100 scale
How it was run: as §2

[14] = tested on: galium (catchweed bedstraw, Galium aparine); assay: Test A postemergence, galium; conditions: 0 to 100 scale
How it was run: as §2

[15] = tested on: ryegrass, Italian (Lolium multiflorum); assay: Test A postemergence, Italian ryegrass; conditions: 0 to 100 scale
How it was run: as §2

[16] = tested on: barnyardgrass (Echinochloa crus-galli); assay: Test A preemergence, barnyardgrass; conditions: 0 to 100 scale
How it was run: as §2

[17] = tested on: foxtail, giant (Setaria faberii); assay: Test A postemergence, giant foxtail; conditions: 0 to 100 scale
How it was run: as §2

[18] = tested on: corn (Zea mays); assay: Test A postemergence, corn; conditions: 0 to 100 scale
How it was run: as §2

[19] = tested on: blackgrass (Alopecurus myosuroides); assay: Test A postemergence, blackgrass; conditions: 0 to 100 scale
How it was run: as §2

[20] = tested on: sedge, umbrella (small-flower umbrella sedge, Cyperus difformis); assay: Test B flooded paddy test, umbrella sedge; conditions: Flood, 250 g ai/ha, applied to paddy water, 2-leaf stage, visual evaluation after 13 to 15 d
How it was run: as §1

## C[C@@H](Nc1ncc(C(F)(F)F)c(N)n1)c1cc2cc(Cl)ccc2o1 [Compound 2]
[1]
  Plant response rating, Ducksalad (0 to 100 scale, 0 is no effect, 100 is complete control): 0
[2]
  Plant response rating, Rice (0 to 100 scale, 0 is no effect, 100 is complete control): 0
[3]; 125 g ai/ha
  Plant response rating, Kochia: 0
[3]; 500 g ai/ha
  Plant response rating, Kochia: 0
[4]; 125 g ai/ha
  Plant response rating, Wheat: 0
[4]; 500 g ai/ha
  Plant response rating, Wheat: 0
[5]; 125 g ai/ha
  Plant response rating, Foxtail, Giant: 0
[5]; 500 g ai/ha
  Plant response rating, Foxtail, Giant: 0
[6]; 125 g ai/ha
  Plant response rating, Kochia: 0
[6]; 500 g ai/ha
  Plant response rating, Kochia: 0
[7]
  Plant response rating, Barnyardgrass (0 to 100 scale, 0 is no effect, 100 is complete control): 0
[8]; 125 g ai/ha
  Plant response rating, Pigweed: 10
[8]; 500 g ai/ha
  Plant response rating, Pigweed: 20
[9]; 125 g ai/ha
  Plant response rating, Ryegrass, Italian: 0
[9]; 500 g ai/ha
  Plant response rating, Ryegrass, Italian: 0
[10]; 125 g ai/ha
  Plant response rating, Barnyardgrass: 0
[10]; 500 g ai/ha
  Plant response rating, Barnyardgrass: 10
[11]; 125 g ai/ha
  Plant response rating, Ragweed: 0
[11]; 500 g ai/ha
  Plant response rating, Ragweed: 20
[12]; 125 g ai/ha
  Plant response rating, Pigweed: 40
[12]; 500 g ai/ha
  Plant response rating, Pigweed: 90
[13]; 125 g ai/ha
  Plant response rating, Ragweed: 0
[13]; 500 g ai/ha
  Plant response rating, Ragweed: 0
[14]; 125 g ai/ha
  Plant response rating, Galium: 0
[14]; 500 g ai/ha
  Plant response rating, Galium: 30
[15]; 125 g ai/ha
  Plant response rating, Ryegrass, Italian: 0
[15]; 500 g ai/ha
  Plant response rating, Ryegrass, Italian: 0
[16]; 125 g ai/ha
  Plant response rating, Barnyardgrass: 0
[16]; 500 g ai/ha
  Plant response rating, Barnyardgrass: 0
[17]; 125 g ai/ha
  Plant response rating, Foxtail, Giant: 0
[17]; 500 g ai/ha
  Plant response rating, Foxtail, Giant: 0
[18]; 125 g ai/ha
  Plant response rating, Corn: 0
[18]; 500 g ai/ha
  Plant response rating, Corn: 0
[19]; 125 g ai/ha
  Plant response rating, Blackgrass: 0
[19]; 500 g ai/ha
  Plant response rating, Blackgrass: 0
[20]
  Plant response rating, Sedge, Umbrella (0 to 100 scale, 0 is no effect, 100 is complete control): 0

## C[C@@H](Nc1ncc(C(F)(F)F)c(N)n1)c1cccc2ccccc12 [Compound 3]
[1]
  Plant response rating, Ducksalad (0 to 100 scale, 0 is no effect, 100 is complete control): 30
[2]
  Plant response rating, Rice (0 to 100 scale, 0 is no effect, 100 is complete control): 0
[3]; 125 g ai/ha
  Plant response rating, Kochia: 30
[3]; 500 g ai/ha
  Plant response rating, Kochia: 100
[4]; 125 g ai/ha
  Plant response rating, Wheat: 20
[4]; 500 g ai/ha
  Plant response rating, Wheat: 0
[5]; 125 g ai/ha
  Plant response rating, Foxtail, Giant: 10
[5]; 500 g ai/ha
  Plant response rating, Foxtail, Giant: 90
[6]; 125 g ai/ha
  Plant response rating, Kochia: 30
[6]; 500 g ai/ha
  Plant response rating, Kochia: 90
[7]
  Plant response rating, Barnyardgrass (0 to 100 scale, 0 is no effect, 100 is complete control): 0
[8]; 125 g ai/ha
  Plant response rating, Pigweed: 100
[8]; 500 g ai/ha
  Plant response rating, Pigweed: 100
[9]; 125 g ai/ha
  Plant response rating, Ryegrass, Italian: 20
[9]; 500 g ai/ha
  Plant response rating, Ryegrass, Italian: 90
[10]; 125 g ai/ha
  Plant response rating, Barnyardgrass: 20
[10]; 500 g ai/ha
  Plant response rating, Barnyardgrass: 80
[11]; 125 g ai/ha
  Plant response rating, Ragweed: 30
[11]; 500 g ai/ha
  Plant response rating, Ragweed: 90
[12]; 125 g ai/ha
  Plant response rating, Pigweed: 90
[12]; 500 g ai/ha
  Plant response rating, Pigweed: 100
[13]; 125 g ai/ha
  Plant response rating, Ragweed: 100
[13]; 500 g ai/ha
  Plant response rating, Ragweed: 100
[14]; 125 g ai/ha
  Plant response rating, Galium: 30
[14]; 500 g ai/ha
  Plant response rating, Galium: 90
[15]; 125 g ai/ha
  Plant response rating, Ryegrass, Italian: 0
[15]; 500 g ai/ha
  Plant response rating, Ryegrass, Italian: 0
[16]; 125 g ai/ha
  Plant response rating, Barnyardgrass: 10
[16]; 500 g ai/ha
  Plant response rating, Barnyardgrass: 100
[17]; 125 g ai/ha
  Plant response rating, Foxtail, Giant: 0
[17]; 500 g ai/ha
  Plant response rating, Foxtail, Giant: 40
[18]; 125 g ai/ha
  Plant response rating, Corn: 0
[18]; 500 g ai/ha
  Plant response rating, Corn: 10
[19]; 125 g ai/ha
  Plant response rating, Blackgrass: 0
[19]; 500 g ai/ha
  Plant response rating, Blackgrass: 30
[20]
  Plant response rating, Sedge, Umbrella (0 to 100 scale, 0 is no effect, 100 is complete control): 65

## C[C@@H](Nc1ncc(C(F)(F)F)c(N)n1)c1cc2ccccc2s1 [Compound 4, N2-[(1R)-1-benzo[b]thien-2-ylethyl]-5-(trifluoromethyl)-2,4-pyrimidinediamine]
[1]; Heteranthera limosa, 360 h, read-out: Plant response rating, Ducksalad (0 to 100 scale, 0 is no effect, 100 is complete control)
  pest or weed control at 250 g/ha: 45%
[2]; Oryza sativa, 360 h, read-out: Plant response rating, Rice (0 to 100 scale, 0 is no effect, 100 is complete control)
  plant injury at 250 g/ha: 0%
[3]; 125 g ai/ha
  Plant response rating, Kochia: 100
[3]; 500 g ai/ha
  Plant response rating, Kochia: 100
[4]; Triticum aestivum, post-emergence, 240 h, 125 g ai/ha, read-out: Plant response rating, Wheat
  plant injury at 125 g/ha: 0%
[4]; Triticum aestivum, post-emergence, 240 h, 500 g ai/ha, read-out: Plant response rating, Wheat
  plant injury at 500 g/ha: 0%
[5]; 125 g ai/ha
  Plant response rating, Foxtail, Giant: 90
[5]; 500 g ai/ha
  Plant response rating, Foxtail, Giant: 100
[6]; Bassia scoparia, post-emergence, 240 h, 125 g ai/ha, read-out: Plant response rating, Kochia
  pest or weed control at 125 g/ha: 90%
[6]; Bassia scoparia, post-emergence, 240 h, 500 g ai/ha, read-out: Plant response rating, Kochia
  pest or weed control at 500 g/ha: 100%
[7]; Echinochloa crus-galli, 360 h, read-out: Plant response rating, Barnyardgrass (0 to 100 scale, 0 is no effect, 100 is complete control)
  pest or weed control at 250 g/ha: 95%
[8]; 125 g ai/ha
  Plant response rating, Pigweed: 100
[8]; 500 g ai/ha
  Plant response rating, Pigweed: 100
[9]; 125 g ai/ha
  Plant response rating, Ryegrass, Italian: 80
[9]; 500 g ai/ha
  Plant response rating, Ryegrass, Italian: 90
[10]; Echinochloa crus-galli, post-emergence, 240 h, 125 g ai/ha, read-out: Plant response rating, Barnyardgrass
  pest or weed control at 125 g/ha: 20%
[10]; Echinochloa crus-galli, post-emergence, 240 h, 500 g ai/ha, read-out: Plant response rating, Barnyardgrass
  pest or weed control at 500 g/ha: 60%
[11]; Ambrosia artemisiifolia, post-emergence, 240 h, 125 g ai/ha, read-out: Plant response rating, Ragweed
  pest or weed control at 125 g/ha: 80%
[11]; Ambrosia artemisiifolia, post-emergence, 240 h, 500 g ai/ha, read-out: Plant response rating, Ragweed
  pest or weed control at 500 g/ha: 100%
[12]; Amaranthus retroflexus, post-emergence, 240 h, 125 g ai/ha, read-out: Plant response rating, Pigweed
  pest or weed control at 125 g/ha: 100%
[12]; Amaranthus retroflexus, post-emergence, 240 h, 500 g ai/ha, read-out: Plant response rating, Pigweed
  pest or weed control at 500 g/ha: 100%
[13]; 125 g ai/ha
  Plant response rating, Ragweed: 100
[13]; 500 g ai/ha
  Plant response rating, Ragweed: 100
[14]; Galium, post-emergence, 240 h, 125 g ai/ha, read-out: Plant response rating, Galium
  pest or weed control at 125 g/ha: 80%
[14]; Galium, post-emergence, 240 h, 500 g ai/ha, read-out: Plant response rating, Galium
  pest or weed control at 500 g/ha: 80%
[15]; Lolium multiflorum, post-emergence, 240 h, 125 g ai/ha, read-out: Plant response rating, Ryegrass, Italian
  pest or weed control at 125 g/ha: 0%
[15]; Lolium multiflorum, post-emergence, 240 h, 500 g ai/ha, read-out: Plant response rating, Ryegrass, Italian
  pest or weed control at 500 g/ha: 20%
[16]; 125 g ai/ha
  Plant response rating, Barnyardgrass: 90
[16]; 500 g ai/ha
  Plant response rating, Barnyardgrass: 100
[17]; Setaria faberi, post-emergence, 240 h, 125 g ai/ha, read-out: Plant response rating, Foxtail, Giant
  pest or weed control at 125 g/ha: 30%
[17]; Setaria faberi, post-emergence, 240 h, 500 g ai/ha, read-out: Plant response rating, Foxtail, Giant
  pest or weed control at 500 g/ha: 70%
[18]; Zea mays, post-emergence, 240 h, 125 g ai/ha
  Corn plant response rating (crop injury, 0 = no effect, 100 = complete kill) at 125 g/ha: 0%
[18]; Zea mays, post-emergence, 240 h, 500 g ai/ha
  Corn plant response rating (crop injury, 0 = no effect, 100 = complete kill) at 500 g/ha: 30%
[19]; Alopecurus myosuroides, post-emergence, 240 h, 125 g ai/ha, read-out: Plant response rating, Blackgrass
  pest or weed control at 125 g/ha: 0%
[19]; Alopecurus myosuroides, post-emergence, 240 h, 500 g ai/ha, read-out: Plant response rating, Blackgrass
  pest or weed control at 500 g/ha: 60%
[20]; Cyperus difformis, 360 h, read-out: Plant response rating, Sedge, Umbrella (0 to 100 scale, 0 is no effect, 100 is complete control)
  pest or weed control at 250 g/ha: 100%
